What is called IC50 is the point on the concentration scale where inhibition reaches its midpoint. By Ki is commonly meant a dissociation constant, usually derived from enzyme kinetics or from competition with a known ligand. A high value points to weaker binding.

The values below come from patent US11590118B2, “Methods and compositions for treating retina-associated disease using CCR3-inhibitors” (ALKAHEST INC., priority 2017, dated 2023).

Experiment [1] deals with T1, human CCR3 (Homo sapiens, UniProt P51677).
T1 sequence (P51677 1-355): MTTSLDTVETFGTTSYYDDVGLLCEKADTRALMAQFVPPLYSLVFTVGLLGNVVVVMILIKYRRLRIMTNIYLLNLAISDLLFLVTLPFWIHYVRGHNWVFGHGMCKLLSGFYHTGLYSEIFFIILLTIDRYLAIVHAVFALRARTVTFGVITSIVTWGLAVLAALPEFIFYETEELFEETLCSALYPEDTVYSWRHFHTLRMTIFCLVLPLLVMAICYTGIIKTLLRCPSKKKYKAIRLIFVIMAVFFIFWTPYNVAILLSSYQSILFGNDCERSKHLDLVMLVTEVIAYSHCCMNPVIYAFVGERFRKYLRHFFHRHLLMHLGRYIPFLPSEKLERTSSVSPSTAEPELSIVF
Briefly: human eotaxin-1 induced eosinophil shape change in human whole blood. Type of experiment: cell-based. Particulars: read-out: IC50, antagonism of human eotaxin-1 induced eosinophil shape change. As for the experimental part:
(§1) The antagonistic potency of the investigational product of the invention was determined in several human CCR3-dependent assays (FIG. 1). […] IC50 for a calcium influx assay using human CCR3-transfected CHEM1-Gα15 cells was determined to be 0.9±0.2 nM.

A further experiment has as its target T2, rat CCR3 (Rattus norvegicus, UniProt O54814).
T2 sequence (O54814 1-359): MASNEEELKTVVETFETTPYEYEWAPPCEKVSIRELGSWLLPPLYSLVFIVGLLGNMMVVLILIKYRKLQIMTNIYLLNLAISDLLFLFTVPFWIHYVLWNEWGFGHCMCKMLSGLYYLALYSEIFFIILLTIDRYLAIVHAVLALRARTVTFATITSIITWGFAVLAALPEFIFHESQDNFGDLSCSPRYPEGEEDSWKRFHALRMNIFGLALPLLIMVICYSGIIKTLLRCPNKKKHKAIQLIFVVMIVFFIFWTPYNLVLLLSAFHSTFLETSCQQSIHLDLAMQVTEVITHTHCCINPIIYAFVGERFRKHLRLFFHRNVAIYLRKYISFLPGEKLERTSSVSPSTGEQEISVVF
Briefly: receptor binding assay, rat CCR3. As for the experimental part: (§2) Potencies for several other mammalian species were also determined in different assays. Species included cynomolgus (macaque) monkeys, mouse, rat, and canines.

Experiment [2] addresses T1, human CCR3. Briefly: calcium influx assay using human CCR3-transfected CHEM1-Gα15 cells. Type of experiment: cell-based. As for the experimental part: as §1
For a further experiment, the target named is T3, mouse CCR3 (Mus musculus, UniProt P51678).
T3 sequence (P51678 1-359): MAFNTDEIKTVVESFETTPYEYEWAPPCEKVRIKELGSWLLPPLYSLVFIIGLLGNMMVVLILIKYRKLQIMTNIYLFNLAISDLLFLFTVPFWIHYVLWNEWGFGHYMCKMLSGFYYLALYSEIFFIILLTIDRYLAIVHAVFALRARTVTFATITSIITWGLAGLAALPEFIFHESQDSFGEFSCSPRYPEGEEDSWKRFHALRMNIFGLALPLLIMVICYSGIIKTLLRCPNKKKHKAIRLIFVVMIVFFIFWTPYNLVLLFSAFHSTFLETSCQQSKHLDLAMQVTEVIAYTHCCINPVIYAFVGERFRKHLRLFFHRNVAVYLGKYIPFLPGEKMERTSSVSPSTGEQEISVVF
The experiment can be described thus: receptor binding assay, mouse CCR3. How it is done: as §2

The target of experiment [3] is T1, human CCR3. The experiment can be described thus: receptor binding assay, human CCR3. How it is done: as §1
For experiment [4], the system named is subfoveal CNV secondary to wAMD. The experiment can be described thus: single-arm, open-label clinical study in treatment-naïve wAMD patients, 4 week regimen. It is filed as in vivo, human. Particulars: 400 mg orally twice daily for 4 weeks. How it is done: Patients with newly diagnosed (e.g. treatment-naïve) subfoveal CNV that was secondary to wAMD were entered into a single-arm, open-label study. Patients orally took 400 mg of the investigational drug of the invention b.o.d. (twice daily) for 4 weeks and had weekly scheduled visits with the physician. The regimen called for […]. After the end of treatment (EoT) or on withdrawal from the study medication, eligible patients could receive standard of care therapy (anti-VEGF therapy). Patients were followed up twice within 4 weeks after EoT. FIG. 2 is a depiction of the clinical trial design. Boxes V1, V2, V3, V4, and V5 indicate patient visits 1 through 5, respectively. Gaps between the boxes indicate the time in days between visits. The box labeled EoT indicates visit 6, or the end of treatment. Visits 7 and 8 occurred during the follow-up (FU) visits.
The primary endpoint was the change from baseline in central retinal thickness (CRT) as determined by spectral domain optical coherence tomography (SD-OCT) on day 29 (visit no. 6). For all primary and secondary endpoints, the value of the last assessment before first intake of study medication was used as the baseline on day 1 (visit no. 2).
CRT was reported as mean (SEM) in units of μm and time as visit number. The retinal layers and thickness was visualized and measured by SD-OCT, and to those having ordinary of skill in the art and trained using OCT equipment, visualization and measurement of the retinal layers involve well-known techniques. […]
The retinal vasculature of the study eye was evaluated via fluorescein angiography (FA). The change in neovascular leakage by FA was determined on Day 29 (visit 6) compared to baseline. […] N is the number of patients evaluated.
Visual acuity was determined using ETDRS charts over time of treatment. The absolute change in numbers of letters read by patients from their baseline levels was evaluated during visits. […]

Turning to `Cc1cc(C(=O)N(C)C)cc(NC(=O)[C@H]2CCC(=O)N2C2CCN(Cc3ccc(Cl)c(C)c3)CC2)n1` [investigational product of the invention], the IC50 worked out at 42.5 ± 43.5 nM on human CCR3 [1]; 1720 ± 130 nM at rat CCR3; 0.9 ± 0.2 nM at human CCR3 [2]; 87.3 ± 5.6 nM at mouse CCR3; 4 ± 1.8 nM on human CCR3 [3]. The inhibitory constant (Ki) on rat CCR3 is 1490 ± 128 nM; at mouse CCR3, 124.3 ± 0.9 nM; at human CCR3 [3] it was 3.2 ± 0.6 nM. The “change from baseline in central retinal thickness (CRT) by SD-OCT” value in experiment [4] (median or mean CRT through the treatment phase) was “no significant change from baseline”. The “change from baseline in neovascular leakage by fluorescein angiography” value in experiment [4] (median or mean values through the treatment phase) is reported as “no significant change from baseline”. In experiment [4] (subset of 8 out of 14 patients, compared to sham control and the larger patient group), the “best corrected visual acuity (BCVA), change in letters read, ETDRS charts” value is “significant improvement”.
